According to patent publication US20110275630A1, “ISO[…] INHIBITORS” (ABBOTT LABORATORIES, priority 2003, published 2011):

Each compound was assayed against T1, ROCK 2 (Homo sapiens, UniProt O75116) (assay: ROCK kinase activity assays ([33P]-ATP FlashPlate assay / HTRF assay)).
T1 construct: ROCK1 (1.5 nM; Invitrogen) or ROCK2 (0.2 nM; Upstate) catalytic domains; purchased Upstate
Type: biochemical
Source text: [33P]-ATP assay: ROCK activity is initially determined using a radioactive FlashPlate-based assay.

T1 sequence (O75116 92-354 limits assumed, species assumed): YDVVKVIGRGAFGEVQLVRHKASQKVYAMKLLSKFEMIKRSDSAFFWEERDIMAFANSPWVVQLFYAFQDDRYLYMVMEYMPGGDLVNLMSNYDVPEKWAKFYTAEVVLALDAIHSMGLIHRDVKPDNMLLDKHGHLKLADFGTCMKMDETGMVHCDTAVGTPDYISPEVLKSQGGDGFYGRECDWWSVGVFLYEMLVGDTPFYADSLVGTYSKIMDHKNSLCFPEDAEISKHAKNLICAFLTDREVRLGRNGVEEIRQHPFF

Row | SMILES | Ki
1 | O=C(Nc1ccc(-c2cccc3c2CNC3=O)cc1)c1cc2cc(F)ccc2[nH]1 [Example 131, 5-fluoro-N-[4-(1-oxo-2,3-dihydro-1H-isoindol-4-yl)phenyl]-1H-indole-2-carboxamide] | 32.6 nM
2 | O=C(Nc1ccc(-c2cccc3c2CNC3=O)cc1)c1cc2ccccc2o1 [Example 132, N-[4-(1-oxo-2,3-dihydro-1H-isoindol-4-yl)phenyl]-1-benzofuran-2-carboxamide] | 66.1 nM
3 | O=C(Nc1ccc(-c2cccc3c2CNC3=O)cc1)c1ccc2c(c1)OCCO2 [Example 134, N-[4-(1-oxo-2,3-dihydro-1H-isoindol-4-yl)phenyl]-2,3-dihydro-1,4-benzodioxine-6-carboxamide] | 331 nM
4 | O=C(Nc1ccc(-c2cccc3c2CNC3=O)cc1)c1cccc(S(=O)(=O)N2CCOCC2)c1 [Example 135, 3-(morpholin-4-ylsulfonyl)-N-[4-(1-oxo-2,3-dihydro-1H-isoindol-4-yl)phenyl]benzamide] | 8.75 nM
5 | NC1CCN(S(=O)(=O)c2cccc(C(=O)Nc3ccc(-c4cccc5c4CNC5=O)cc3)c2)CC1 [Example 137, 3-[(4-aminopiperidin-1-yl)sulfonyl]-N-[4-(1-oxo-2,3-dihydro-1H-isoindol-4-yl)phenyl]benzamide] | 12.8 nM

Continued by falling Ki, values first:

Row | Ki | SMILES
6 | 201 nM | O=C(Nc1ccc(-c2cccc3c2CNC3=O)cc1)c1ccc(N2CCOCC2)nc1 [Example 136, 6-(morpholin-4-yl)-N-[4-(1-oxo-2,3-dihydro-1H-isoindol-4-yl)phenyl]pyridine-3-carboxamide]
7 | 153 nM | O=C1NCc2c1cccc2-c1ccc(Nc2nc3ccc(Cl)cc3o2)cc1 [Example 139, 4-{4-[(6-chloro-1,3-benzoxazol-2-yl)amino]phenyl}-2,3-dihydro-1H-isoindol-1-one]
8 | 27.4 nM | O=C(Nc1ccc(-c2cccc3c2CNC3=O)cc1)c1cc2ccccc2[nH]1 [Example 140, N-[4-(1-oxo-2,3-dihydro-1H-isoindol-4-yl)phenyl]-1H-indole-2-carboxamide]
